What is called viability is a read-out of living cells in per cent, often relative to untreated cells. For orientation: AC50 means the concentration giving half of the maximal activity seen.

A short description of one data set: in vitro. The following applies: human.
For data set [1], the system named is luciferase-expressing P. berghei liver stage parasites in HepG2 cells. Nature of the data set: Inhibition of liver-stage development assay (ILSDA), Method 2 (WRAIR, 96-well). Format: cell-based, Plasmodium berghei. The following applies: for Activity direction (Decrease / Inactive): P. berghei liver stage.
The subject of data set [2] is Plasmodium falciparum Dd2 asexual blood stage parasites. Nature of the data set: microbe, parasite or virus in culture. Details: species or system Plasmodium falciparum Dd2 in human erythrocytes; single determination (one 11-point concentration-response curve). The conditions noted are these: Plasmodium falciparum, DD2, Erythrocyte, 72 h; read-out: AC50.
In data set [3] the test system is P. berghei-ANKA-GFP-LucCON liver stage parasites in HepG2-A16-CD81EGFP cells. Nature of the data set: P. berghei liver stage Pb-Luc assay, Method 1 (UCSD, 1536-well). Format: cell-based, Plasmodium berghei. The conditions noted are these: for Max Resp (signal direction of the dose response) / AC50 / Log AC50 (M): Method 1; for Max Resp (signal direction of the dose response): Decrease = decreasing P. berghei viability with dose, Increase = increasing signal, Inactive = no dose response; for activity at 1 µM / activity at 3 µM: 48 h, average of 2 wells on a 1536 well plate; for activity at 1 µM: 1 uM (compounds provided at 10 mM); for activity at 3 µM: 3 uM (compounds provided at 10 mM).

Where [4] appears, read: HepG2-A16-CD81EGFP cells, uninfected.
[5] abbreviates: Method 2, Decrease = decreasing P. berghei viability with dose, Increase = increasing signal, Inactive = no dose response.
[6] abbreviates: Plasmodium berghei, HepG2, Method 2, Hill fit, 50% of maximum activity response, read-out: AC50.
Where [7] appears, read: Plasmodium berghei, HepG2, Method 2, log10 of molar AC50 from Hill fit, read-out: Log AC50 (converted).
Where [8] appears, read: Plasmodium berghei, Hill fit, 50% of maximum activity response, read-out: AC50.
The mark [9] stands for this setting: Plasmodium berghei, log10 of molar AC50 from Hill fit, read-out: Log AC50 (converted).
Setting [10] is: Hill fit, 50% of maximum activity response, read-out: AC50.
The mark [11] stands for this setting: log10 of molar AC50 from Hill fit.
[12] abbreviates: Plasmodium berghei, HepG2, P. berghei liver stage, Method 2, dose response, read-out: AC50.
[13] abbreviates: Plasmodium berghei, HepG2, P. berghei liver stage, Method 2, dose response, read-out: Log AC50 (converted).

Molecules are shown by their SMILES. Where two headings read alike, the source gives them in different places.

Consider `O=C(CCc1ccccc1)NC(c1cccs1)c1cc(Cl)c2cccnc2c1O` (stereo not drawn) [MLS000703748-01], for which, in the data set “in vitro” (setting [4]), the viability at 48 h, 1 µM was 113% and the viability at 48 h, 3 µM is 51%. The “Max Resp (signal direction of the dose response)” value (shortened to “Max Resp”) in data set [1] (setting [5]) is listed as “Inactive”.
On to `COc1ccc2nc(C)cc(Nc3ccc(Cl)c(Cl)c3)c2c1` [NCGC00098192-01], for which the figures for the AC50 in data set [2], in data set [1] (setting [6]) and in data set [1] (setting [7]) were 2660 nM, 398 nM and 398 nM, respectively. In addition, the “Max Resp” value in data set [1] (setting [5]) is reported as “Decrease”; in data set [3], “Inactive”.
For `c1ccc(CNc2nc(NCc3ccccc3)c3ccccc3n2)cc1` [NCGC00347066-01], in “in vitro” (setting [4]), the viability at 48 h, 1 µM worked out at 83% and the viability at 48 h, 3 µM is 72%. The “Max Resp” value in data set [1] (setting [5]) was “Inactive”.
For `Cc1ccc(C(=O)Nc2nc(-c3ccccn3)cs2)cc1S(=O)(=O)N1CCOCC1` [MLS002157637-01] the same measures were 92%, 55% and “Inactive”.
Turning to `CCOC(=O)c1[nH]c(C)c(CCC(=O)N2CCN(c3cccc(C)c3C)CC2)c1C` [NCGC00134568-01], the results for the AC50 in data set [2], in data set [1] (setting [6]) and in data set [1] (setting [7]) were 1330 nM, 562 nM and 562 nM, respectively. In addition, the “Max Resp” value is reported as “Decrease” in data set [1] (setting [5]) and “Inactive” in data set [3].
`COc1cc(/C=C(\C#N)c2nc3ccccc3[nH]2)ccc1OCc1ccc(F)cc1` [NCGC00102606-01]: the AC50 is 5310 nM in data set [2]; 794 nM in data set [1] (setting [6]); 794 nM in data set [1] (setting [7]); 1410 nM in data set [3] (setting [8]); 1410 nM in data set [3] (setting [9]). Moreover, the “Max Resp” value in data set [1] (setting [5]) and in data set [3] was “Decrease” each time.
Turning to `COc1ccc(-c2ccc3ncc(Nc4ccncc4)n3n2)cc1OC` [NCGC00412536-01], the values for the AC50 in data set [2], in data set [3] (setting [8]) and in data set [3] (setting [9]) were 4850 nM, 2240 nM and 2240 nM, respectively. The “Max Resp” value in data set [1] (setting [5]) is “Inactive”.
As for `CCOC(=O)c1c[nH]c2c3c(ccc2c1=O)CCCC3` [MLS000085191-01], in the data set “in vitro” (setting [4]), the viability at 48 h, 1 µM worked out at 98% and the viability at 48 h, 3 µM worked out at 106%. In addition, the “Max Resp” value in data set [1] (setting [5]) is “Increase”.
Consider `Cc1cccc(N(C)c2nc3ccccc3c3nnc(C)n23)c1` [NCGC00126108-01], for which the AC50 in data set [2] was 1060 nM; in data set [1] (Method 2, Hill fit, 50% of maximum activity response, read-out: AC50), 447 nM; in data set [3] (setting [8]), 316 nM; in data set [3] (setting [9]), 316 nM. For the same compound, the “Max Resp” value in data set [1] (setting [5]) and in data set [3] was “Decrease” in each case. In addition, the “Log AC50 (M)” value in data set [1] (Method 2, log10 of molar AC50 from Hill fit) is given as -6.350 M.
Regarding `CCC(CC)c1cc([C@H]2CN3CC[C@H]2C[C@@H]3CNC(C)=O)nc(-c2ccncc2)n1` [NCGC00394634-01], the results for the AC50 in data set [2], in data set [1] (setting [6]) and in data set [1] (setting [7]) were 15300 nM, 355 nM and 355 nM, respectively. For the same compound, the “Max Resp” value in data set [1] (setting [5]) and in data set [3] was “Decrease” in each case.
With `CCOC(=O)c1[nH]c(C)c(CCC(=O)N2CCN(c3cc(Cl)ccc3C)CC2)c1C` [NCGC00134588-01], the values for the AC50 in data set [2], in data set [1] (setting [6]) and in data set [1] (setting [7]) were 1190 nM, 708 nM and 708 nM, respectively. Moreover, the “Max Resp” value is on record as “Decrease” in data set [1] (setting [5]) and “Inactive” in data set [3].
Consider `COc1ccc2nc(C[C@@H]3C[C@@H](C(C)C)[C@H](CNCc4ccccc4O)C=C3C)[nH]c2n1` [NCGC00391280-01], for which the results for the AC50 in data set [2], in data set [3] (setting [8]) and in data set [3] (setting [9]) were 243 nM, 1580 nM and 1580 nM, respectively. In addition, the “Max Resp” value in data set [1] (setting [5]) is “Inactive”.
With `CCCCN(CC)CCNC(=O)c1cc2c(-c3ccc(Cl)cc3)nn(C)c2s1` [NCGC00108995], the viability at 66 h in the data set “in vitro” (setting [4]) came out at 102%. The “Max Resp” value in data set [1] (setting [5]) was “Inactive”.
Consider `COc1cccc(NC(=O)c2cccc3c(=O)c4c([nH]c23)CCCC4)c1` [NCGC00119838-01], for which, in data set [2], the AC50 came out at 2990 nM. For the same compound, the “Max Resp” value in data set [1] (setting [5]) is given as “Increase”; in data set [3], “Inactive”.
Regarding `COc1ccc(-n2nc(C)c([C@@H]3C=C[C@@H](NCc4ccc(N(C)C)cc4)C3)c2C)cc1` [NCGC00394616-01], the AC50 is 4330 nM in data set [2]; 2820 nM in data set [1] (setting [6]); 2820 nM in data set [1] (setting [7]); 1580 nM in data set [3] (setting [10]); 1410 nM in data set [3] (setting [8]); 1410 nM in data set [3] (setting [9]). Moreover, the “Max Resp” value in data set [1] (setting [5]) and in data set [3] was “Decrease” in each case. Also, the “Log AC50 (M)” value in data set [3] (setting [11]) is given as -5.800 M.
With `COc1ccc(-n2nc(C)c([C@@H]3C=C[C@@H](NCc4ccc(F)cc4)C3)c2C)cc1` [NCGC00421412-01], the AC50 in data set [2] is 1370 nM; in data set [1] (setting [12]), 3980 nM; in data set [1] (setting [13]), 3980 nM; in data set [3] (setting [10]), 1780 nM; in data set [3] (setting [8]), 1580 nM; in data set [3] (setting [9]), 1580 nM. For the same compound, the “Activity direction (Decrease / Inactive)” value in data set [1] (Method 2, dose response) is reported as “Decrease”. In data set [3], the “Max Resp” value was “Decrease”. Besides, the “Log AC50 (M)” value in data set [3] (setting [11]) was -5.750 M.
With `Cc1ccc(C(=O)Nc2nc(-c3ccccn3)cs2)cc1[S+](=O)([O-])N1CCOCC1.O=C(O)C(F)(F)F` [NCGC00345210-01], in “in vitro” (setting [4]), the viability at 48 h, 1 µM amounted to 73% and the viability at 48 h, 3 µM amounted to 31%. Also, in data set [1] (setting [5]), the “Max Resp” value is “Inactive”.
Turning to `Cc1cccc(N2CCN(c3nc4ccccc4c4nnc(C)n34)CC2)c1C` [NCGC00107423-01], the AC50 in data set [2] was 5310 nM; in data set [1] (setting [6]) it was 89 nM; in data set [1] (setting [7]) it was 89.1 nM. Further, the “Max Resp” value in data set [1] (setting [5]) was “Decrease”; in data set [3], “Inactive”.
As to `Cc1ccc(-c2nn3c(=O)c4c([nH]c3c2C)CCCC4)cc1` [MLS000029798-01], the AC50 in data set [2] was 2990 nM; in data set [1] (setting [6]) it was 282 nM; in data set [1] (setting [7]) it was 282 nM. For the same compound, in data set [1] (setting [5]), the “Max Resp” value was “Decrease”. Besides, the activity at 1 µM amounted to 15% in data set [3] (Plasmodium berghei, column 11, read-out: Pb-Luc (P. berghei liver stage), % of control, lower concentration, first repeat) and 11% in data set [3] (Plasmodium berghei, column 12, read-out: Pb-Luc (P. berghei liver stage), % of control, lower concentration, second repeat). The activity at 3 µM in data set [3] (Plasmodium berghei, column 8, read-out: Pb-Luc (P. berghei liver stage), % of control, higher concentration, first repeat) is 6.61%; in data set [3] (Plasmodium berghei, column 9, read-out: Pb-Luc (P. berghei liver stage), % of control, higher concentration, second repeat), 8%.
As for `COc1ccc(C2=Nn3c([n+](C)c4ccccc43)SC2)cc1` [MLS000717833-01], in the data set “in vitro” (setting [4]), the viability at 48 h, 1 µM was 83% and the viability at 48 h, 3 µM is 63%. For the same compound, in data set [1] (setting [5]), the “Max Resp” value is recorded as “Decrease”. The AC50 in data set [1] (setting [6]) is 11200 nM. For the same compound, in data set [1] (setting [7]), the AC50 is 11200 nM.
With `O=C1c2ccccc2-n2c1nc1ccccc1c2=O` [NCGC00160337], the viability in “in vitro” worked out at 87%. The “Max Resp” value in data set [1] is “Increase”.
Regarding `CCC(CC)c1cc([C@H]2CN3CC[C@H]2C[C@@H]3CNC(=O)Cc2cccs2)nc(-c2ccncc2)n1` [NCGC00400345-01], the AC50 was 2990 nM in data set [2]; 251 nM in data set [1] (setting [6]); 251 nM in data set [1] (setting [7]); 5620 nM in data set [3] (setting [8]); 5620 nM in data set [3] (setting [9]). Moreover, the “Max Resp” value in data set [1] (setting [5]) and in data set [3] was “Decrease” in each case.
For the compound `O=C(Nc1ccc2c(N3CCCCC3)ncnc2c1)c1cc(F)cc(F)c1` [NCGC00425525-01], the AC50 in data set [2] was 1880 nM; in data set [1] (setting [12]), 398 nM; in data set [1] (setting [13]), 398 nM; in data set [3] (setting [8]) it was 1410 nM; in data set [3] (setting [9]) it was 1410 nM. Besides, in data set [1] (Method 2, dose response), the “Activity direction (Decrease / Inactive)” value is recorded as “Decrease”.
As for `Cc1ccc(Nc2nc(NCCO)c3ccccc3n2)cc1C` [NCGC00273600-02], the viability at 48 h, 1 µM in the data set “in vitro” (setting [4]) worked out at 96%. The viability at 48 h, 3 µM in “in vitro” (setting [4]) was 82%. Further, the “Max Resp” value in data set [1] (setting [5]) is on record as “Decrease”. The AC50 in data set [1] (setting [6]) and in data set [1] (setting [7]) was 562 nM throughout.
In the case of `O=C(Nc1ccc(N2CCN(c3ncccc3C(F)(F)F)CC2)nc1)c1cccs1` [MLS000862045-01], in “in vitro” (setting [4]), the viability at 48 h, 1 µM is 105% and the viability at 48 h, 3 µM is 95%. Moreover, the “Max Resp” value in data set [1] (setting [5]) is “Decrease”. Besides, the concentration at half-maximal activity (AC50) in data set [1] (setting [6]) stood at 447 nM. Besides, the AC50 in data set [1] (setting [7]) was 447 nM.

Source of the values: article PMC7822874, “Chemoprotective antimalarials identified through quantitative high-throughput screening of Plasmodium blood and liver stage parasites” (Scientific Reports, 2021).
